Measured values from article PMC4469915 (Molecules and Cells, 2015).

What was measured:
apoA-I = apoA-I (Homo sapiens, UniProt P02647); assay: DMPC multilamellar liposome clearance, absorbance at […] nm; format: binding; details: lipid-free protein; liposomes; protein:DMPC 2:1 mol/mol as printed; 24.5°C
apoA4 = target: T1, apoA4 (Homo sapiens, UniProt P06727); assay: as above; format: binding; details: lipid-free protein; liposomes; protein:DMPC 2:1 mol/mol as printed; 24.5°C
T1 sequence (P06727 21-396): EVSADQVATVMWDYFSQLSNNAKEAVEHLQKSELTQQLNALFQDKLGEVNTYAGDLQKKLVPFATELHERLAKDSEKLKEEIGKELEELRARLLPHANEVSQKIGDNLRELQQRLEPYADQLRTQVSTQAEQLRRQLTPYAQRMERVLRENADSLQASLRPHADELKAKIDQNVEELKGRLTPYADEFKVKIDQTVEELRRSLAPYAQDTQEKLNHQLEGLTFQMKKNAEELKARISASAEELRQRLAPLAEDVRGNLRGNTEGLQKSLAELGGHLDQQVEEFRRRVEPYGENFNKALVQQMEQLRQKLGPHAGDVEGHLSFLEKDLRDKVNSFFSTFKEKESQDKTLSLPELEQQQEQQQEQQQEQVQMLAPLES

apoA-I, sequence (P02647 25-267): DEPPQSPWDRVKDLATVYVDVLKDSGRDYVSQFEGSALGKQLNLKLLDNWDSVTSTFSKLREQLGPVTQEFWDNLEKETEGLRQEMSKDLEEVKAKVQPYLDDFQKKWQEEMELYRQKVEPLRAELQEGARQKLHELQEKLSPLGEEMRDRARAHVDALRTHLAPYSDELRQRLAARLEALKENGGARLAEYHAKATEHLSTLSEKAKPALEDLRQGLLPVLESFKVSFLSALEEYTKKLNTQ

CCCCCCCCCCCCCC(=O)OC[C@H](COP(=O)([O-])OCC[N+](C)(C)C)OC(=O)CCCCCCCCCCCCC [DMPC] gave a T1/2 (apoA-I) of 11 ± 1 min and a T1/2 (apoA4) of 62 ± 10 min.
